Literature values, collected in patent publication US6749867B2, “Delivery system for omeprazole and its salts” (priority 2000, dated 2004).
Like-named read-outs stand apart in the source and are kept apart here.

What was measured:
[1] = in vivo
[2] = not given; remark: listed apart in the source

plasma half-life [1]: about 60 minutes
solubility in alkaline solution (alkaline solution, as the negatively charged ion): very soluble
solubility in water (water): very slightly soluble
half-life of degradation ([2]; acidic aqueous solutions, pH values below 4): less than 10 minutes
half-life of degradation ([2]; pH 6.5): about 18 hours
half-life of degradation ([2]; pH 11): several hundred
Compound: COc1ccc2[nH]c([S+]([O-])Cc3ncc(C)c(OC)c3C)nc2c1 (stereo not drawn) [omeprazole, Omeprazole]
